Test results taken from ChEMBL document CHEMBL3046110, “Screening and evaluation of thiourea derivatives for their HIV capsid and human cyclophilin A inhibitory activity” (Med Chem Res, 2011).

Tests used:
[1] = Toxicity index, ratio of TC50 for human CEM174 cells to EC50 for Simian immunodeficiency virus; format: cell-based; details: read-out: TI
[2] = test system: Simian immunodeficiency virus; test: Antiviral activity against Simian immunodeficiency virus infected CEM174 cells assessed as inhibition of virus-induced syncytium after 5 days by microscopic analysis; format: functional, organism-based; details: CEM174, 120 h
[3] = molecular target: Structural capsid protein (Human immunodeficiency virus 1) (UniProt Q76129); test: Inhibition of Human immunodeficiency virus 1 capsid protein expressed in Escherichia coli BL21(DE3) assessed as capsid assembly rate measured every 5 secs by spectrofluorometric analysis (reference value: 51.88 x 10^-5 OD/s)
Sequence of Structural capsid protein (Human immunodeficiency virus 1) (Q76129 as listed by the source): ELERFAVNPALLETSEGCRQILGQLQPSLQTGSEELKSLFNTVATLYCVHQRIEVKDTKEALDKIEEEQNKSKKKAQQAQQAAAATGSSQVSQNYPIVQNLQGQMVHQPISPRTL

[4] = Cytotoxicity against Homo sapiens (human) CEM174 by MTT assay; details: CEM174 cells, read-out: TC50 (the source's name)
[5] = molecular target: T1, Peptidyl-prolyl cis-trans isomerase A (Homo sapiens, UniProt P62937); test: Inhibition of Homo sapiens (human) cyclophilin A PPIase activity expressed in Escherichia coli BL21(DE3) using Suc-AAPF-pNA as substrate measured after 6 secs for 20 secs by spectrophotometric analysis
T1 sequence (P62937 whole entry): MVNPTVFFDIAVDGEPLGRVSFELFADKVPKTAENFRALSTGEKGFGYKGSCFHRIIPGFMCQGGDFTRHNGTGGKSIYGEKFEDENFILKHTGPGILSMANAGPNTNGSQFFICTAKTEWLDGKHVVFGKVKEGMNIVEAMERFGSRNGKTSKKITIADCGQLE

[6] = molecular target: T1, Peptidyl-prolyl cis-trans isomerase A; test: Binding affinity to Homo sapiens (human) cyclophilin A expressed in Escherichia coli BL21(DE3) by fluorescence titration assay

IC50 ([5]; read-out: IC50) [µM] | Kd [6] [µM] | Structure (SMILES) | selectivity ratio [1] | EC50 [2] [µM] | Activity [3] [×10⁻⁵ OD/s] | CC50 [4] [µM] | IC50 [5]
– | – | O=C1OCc2ccc(NC(=S)Nc3ccccc3)cc21 | 28 | 1.3 | 25.5 | 36.3 | –
– | – | CCN(CC)c1nc(C)c([N+](=O)[O-])c(NC(=S)Nc2cccc(F)c2)n1 | > 26.3 | 3.8 | 20.7 | > 100 | –
– | – | Cc1ccc(NC(=S)Nc2ccc3c(c2)C(=O)OC3)cc1Cl | 4 | 4.6 | 9.9 | – | –
0.74 | – | O=C1OCc2ccc(NC(=S)Nc3cccc(F)c3)cc21 | 10 | 6.3 | – | – | –
0.81 | 79.3 | CCN(CC)c1nc(C)c([N+](=O)[O-])c(NC(=S)Nc2cccc(Br)c2)n1 | 3.5 | 7.4 | – | 26.2 | –
– | – | Cc1ccc(NC(=O)NCCSCc2ccc(CN(C)C)o2)cc1Cl | – | – | 26.5 | – | –
– | – | CCN(CC)c1nc(C)c([N+](=O)[O-])c(NC(=S)Nc2cccc(Cl)c2)n1 | 8.6 | 3.7 | 21.2 | 31.5 | –
– | – | Cc1ccc(NS(=O)(=O)c2ccc(NC(=S)Nc3ccc(Cl)cc3)cc2)cc1 | 19 | 4.1 | 13.3 | 77.5 | –
– | – | CCN(CC)c1nc(C)c([N+](=O)[O-])c(NC(=S)Nc2ccc(Cl)cc2)n1 | > 8.33 | 12 | 48.9 | > 100 | –
– | – | COc1ccc(NC(=S)Nc2ccc(S(=O)(=O)Nc3cc(C)on3)cc2)cc1 | 27 | 1.5 | 20.2 | – | –
– | – | O=S(=O)(Nc1nccs1)c1ccc(NC(=S)Nc2ccc(Cl)cc2)cc1 | 3 | 0.7 | – | – | –
– | – | Cc1cc(NS(=O)(=O)c2ccc(NC(=S)Nc3ccccc3C)cc2)no1 | 8 | 6.2 | – | – | –
– | – | Cc1cccc(NC(=S)Nc2ccc3c(c2)C(=O)OC3)c1 | 1 | 11.6 | 32.7 | – | Not Active
– | 200 | CCN(CC)c1nc(C)cc(NC(=S)Nc2cccc(Br)c2)n1 | > 1.5 | 5.5 | – | 8.4 | Not Active
– | – | Cc1cc(NS(=O)(=O)c2ccc(NC(=S)Nc3cccc(Br)c3)cc2)no1 | 66 | 0.9 | 15.8 | – | –
0.74 | 73.3 | CCN(CC)c1nc(C)c([N+](=O)[O-])c(NC(=S)Nc2ccc(C)c(Cl)c2)n1 | > 14.1 | 6.3 | – | > 100 | –
0.92 | – | COc1ccc(NC(=S)Nc2ccc3c(c2)C(=O)OC3)cc1 | 20 | 9.7 | – | – | –
– | – | Cc1cc(NS(=O)(=O)c2ccc(NC(=S)Nc3cccc(Cl)c3)cc2)no1 | 92 | 1 | 7.97 | – | –
– | – | Cc1cc(NS(=O)(=O)c2ccc(NC(=S)Nc3ccc(Cl)cc3)cc2)no1 | 9 | 4.1 | 14.7 | – | –
– | – | Cc1cc(NS(=O)(=O)c2ccc(NC(=S)Nc3ccc(C)c(Cl)c3)cc2)no1 | 127 | 0.6 | 18.4 | – | –

Structure (SMILES) | IC50 ([5]; read-out: IC50) [µM] | Kd [6] [µM] | selectivity ratio [1] | EC50 [2] [µM] | Activity [3] [×10⁻⁵ OD/s] | CC50 [4] [µM] | IC50 [5]
Cc1cc(NS(=O)(=O)c2ccc(NC(=S)Nc3cccc(F)c3)cc2)no1 | 0.88 | – | 8 | 11.6 | 38.5 | – | –
